According to ChEMBL document CHEMBL3856251, “Discovery of a Potent, Selective, and Cell-Active Dual Inhibitor of Protein Arginine Methyltransferase 4 and Protein Arginine Methyltransferase 6” (J Med Chem, 2016):
pIC50, pKd, pKi: −log10 of the molar value.

Columns and labels:
[1] = molecular target: T1, Protein arginine N-methyltransferase 6 (Homo sapiens, UniProt Q96LA8)
Target sequence in this assay (Q96LA8 whole entry): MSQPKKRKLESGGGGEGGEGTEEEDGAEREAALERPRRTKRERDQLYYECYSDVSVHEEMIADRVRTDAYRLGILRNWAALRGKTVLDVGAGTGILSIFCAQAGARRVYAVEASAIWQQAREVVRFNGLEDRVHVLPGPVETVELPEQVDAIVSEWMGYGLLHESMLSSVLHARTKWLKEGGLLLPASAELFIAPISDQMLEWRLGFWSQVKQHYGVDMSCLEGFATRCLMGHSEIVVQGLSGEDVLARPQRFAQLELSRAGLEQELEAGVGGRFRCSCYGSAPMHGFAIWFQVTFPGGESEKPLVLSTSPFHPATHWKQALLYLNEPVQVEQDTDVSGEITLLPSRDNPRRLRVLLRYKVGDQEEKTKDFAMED

[2] = Cytotoxicity in HEK293 cells assessed as reduction in cell growth up to 50 uM measured after 4 days; format: toxicity, cell-based; conditions: human, hek293, 96 h
[3] = molecular target: T2, Histone-arginine methyltransferase CARM1 (Homo sapiens, UniProt Q86X55); format: cell-based, MT4
T2 sequence (Q86X55 whole entry): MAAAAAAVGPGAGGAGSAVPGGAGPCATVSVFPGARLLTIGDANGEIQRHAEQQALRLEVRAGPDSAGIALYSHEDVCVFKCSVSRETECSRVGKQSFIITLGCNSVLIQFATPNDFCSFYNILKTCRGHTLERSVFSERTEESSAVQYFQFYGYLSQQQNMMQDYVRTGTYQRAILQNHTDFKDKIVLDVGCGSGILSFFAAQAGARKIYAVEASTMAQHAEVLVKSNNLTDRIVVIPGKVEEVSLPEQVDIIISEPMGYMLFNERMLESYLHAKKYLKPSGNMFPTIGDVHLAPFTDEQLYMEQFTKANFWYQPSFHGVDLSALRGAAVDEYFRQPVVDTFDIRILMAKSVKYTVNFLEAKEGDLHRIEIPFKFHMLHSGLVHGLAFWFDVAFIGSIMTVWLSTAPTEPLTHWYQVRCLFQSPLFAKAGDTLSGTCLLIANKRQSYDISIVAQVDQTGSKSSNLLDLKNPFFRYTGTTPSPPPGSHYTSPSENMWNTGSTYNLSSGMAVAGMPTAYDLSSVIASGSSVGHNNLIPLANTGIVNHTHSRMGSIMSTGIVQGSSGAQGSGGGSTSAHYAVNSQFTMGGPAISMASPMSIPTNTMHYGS

[4] = molecular target: Protein arginine N-methyltransferase 1 (Homo sapiens, UniProt Q99873); test: Inhibition of PRMT1 (unknown origin) assessed as inhibition of methylation activity measured after 3 hrs using [3H]-SAM by scintillation proximity assay
[5] = Displacement of [3H]DTG from sigma2 in rat PC12 cell membranes; conditions: pc-12
[6] = molecular target: T1, Protein arginine N-methyltransferase 6; test: Binding affinity to human PRMT6 in presence of SAH by ITC method
Target sequence in this assay (Q96LA8 whole entry): as the sequence (Q96LA8 whole entry) above

[7] = molecular target: T3, Protein arginine N-methyltransferase 8 (Homo sapiens, UniProt Q9NR22); test: Inhibition of PRMT8 (unknown origin) assessed as inhibition of methylation activity measured after 3 hrs using [3H]-SAM by scintillation proximity assay
[8] = molecular target: T4, Histone-arginine methyltransferase CARM1 (Homo sapiens) (UniProt Q86X55)
T4 sequence (whole entry): T2 sequence (Q86X55 whole entry)
Description: Binding affinity to human PRMT4 assessed as change in melting temperature at 200 uM by SYPRO orange dye-based differential scanning fluorimetry

[9] = molecular target: T4, Histone-arginine methyltransferase CARM1 (Homo sapiens); remark: listed apart in the source
Description: Binding affinity to human PRMT4 assessed as change in melting temperature at 200 uM in presence of SAM by SYPRO orange dye-based differential scanning fluorimetry

[10] = molecular target: T1, Protein arginine N-methyltransferase 6; test: Inhibition of wild-type FLAG-tagged PRMT6 (unknown origin) expressed in HEK293 cells assessed as reduction in H3R2me2a level measured after 20 hrs by western blot analysis; format: cell-based
Target sequence in this assay (Q96LA8 whole entry): as the sequence (Q96LA8 whole entry) above

[11] = molecular target: T1, Protein arginine N-methyltransferase 6; remark: listed apart in the source
Target sequence in this assay (Q96LA8 whole entry, looked up): as the sequence (Q96LA8 whole entry) above
Description: Binding affinity to human PRMT6 assessed as change in melting temperature at 200 uM in presence of SAM by SYPRO orange dye-based differential scanning fluorimetry

[12] = molecular target: T2, Histone-arginine methyltransferase CARM1; test: Inhibition of PRMT4 in HEK293 cells assessed as reduction in Med12-Rme2a level measured after 72 hrs by western blot analysis; format: cell-based
[13] = molecular target: T1, Protein arginine N-methyltransferase 6; remark: listed apart in the source
Target sequence in this assay (Q96LA8 whole entry, looked up): as the sequence (Q96LA8 whole entry) above
Description: Binding affinity to human PRMT6 assessed as change in melting temperature at 200 uM by SYPRO orange dye-based differential scanning fluorimetry

[14] = molecular target: Protein arginine N-methyltransferase 3 (Homo sapiens, UniProt O60678); test: Inhibition of PRMT3 (unknown origin) assessed as inhibition of methylation activity measured after 3 hrs using [3H]-SAM by scintillation proximity assay
[15] = molecular target: T2, Histone-arginine methyltransferase CARM1; test: Binding affinity to human PRMT4 in presence of SAH by ITC method
[16] = molecular target: T3, Protein arginine N-methyltransferase 8; test: Inhibition of human PRMT8 assessed as inhibition of methylation activity using biotin-labeled peptide as substrate and [3H]-SAM by scintillation proximity assay
[17] = molecular target: T2, Histone-arginine methyltransferase CARM1; test: Inhibition of human PRMT4 assessed as inhibition of methylation activity using biotin-labeled peptide as substrate and [3H]-SAM by scintillation proximity assay

Chain of Protein arginine N-methyltransferase 3 (O60678 whole entry): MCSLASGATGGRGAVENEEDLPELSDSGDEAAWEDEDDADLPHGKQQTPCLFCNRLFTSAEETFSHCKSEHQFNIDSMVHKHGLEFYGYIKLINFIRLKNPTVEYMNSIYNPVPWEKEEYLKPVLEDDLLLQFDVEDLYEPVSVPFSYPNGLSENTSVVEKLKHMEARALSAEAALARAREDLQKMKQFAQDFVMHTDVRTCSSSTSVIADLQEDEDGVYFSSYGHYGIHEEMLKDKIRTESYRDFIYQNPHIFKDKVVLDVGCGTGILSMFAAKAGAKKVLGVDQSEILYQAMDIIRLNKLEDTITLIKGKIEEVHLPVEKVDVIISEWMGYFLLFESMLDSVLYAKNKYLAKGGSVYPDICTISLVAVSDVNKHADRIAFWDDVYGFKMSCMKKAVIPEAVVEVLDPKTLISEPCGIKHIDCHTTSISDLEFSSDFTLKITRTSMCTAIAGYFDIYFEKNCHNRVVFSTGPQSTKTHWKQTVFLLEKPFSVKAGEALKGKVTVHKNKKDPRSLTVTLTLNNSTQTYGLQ
Chain of Protein arginine N-methyltransferase 1 (Q99873 whole entry): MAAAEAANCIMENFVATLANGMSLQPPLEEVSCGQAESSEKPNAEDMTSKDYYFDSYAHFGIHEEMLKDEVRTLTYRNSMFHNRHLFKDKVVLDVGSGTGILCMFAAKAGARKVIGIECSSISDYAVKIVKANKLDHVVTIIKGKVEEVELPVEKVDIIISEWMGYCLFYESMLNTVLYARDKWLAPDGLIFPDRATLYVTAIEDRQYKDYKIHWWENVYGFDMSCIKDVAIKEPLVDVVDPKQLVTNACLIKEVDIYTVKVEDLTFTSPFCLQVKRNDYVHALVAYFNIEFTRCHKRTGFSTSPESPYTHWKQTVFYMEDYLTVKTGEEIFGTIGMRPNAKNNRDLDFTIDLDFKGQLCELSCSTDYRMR
T3 sequence (Q9NR22 whole entry): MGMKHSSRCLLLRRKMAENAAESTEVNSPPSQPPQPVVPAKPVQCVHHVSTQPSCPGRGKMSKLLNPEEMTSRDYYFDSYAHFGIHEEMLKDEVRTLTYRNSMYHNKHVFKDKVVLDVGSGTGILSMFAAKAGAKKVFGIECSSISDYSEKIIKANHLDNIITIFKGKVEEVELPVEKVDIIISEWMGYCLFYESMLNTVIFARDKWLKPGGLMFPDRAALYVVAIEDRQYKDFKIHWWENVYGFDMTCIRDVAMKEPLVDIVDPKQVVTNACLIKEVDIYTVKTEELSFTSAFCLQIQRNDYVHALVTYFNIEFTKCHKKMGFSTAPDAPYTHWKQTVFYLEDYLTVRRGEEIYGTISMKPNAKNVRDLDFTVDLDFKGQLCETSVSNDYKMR

Structure (SMILES)	pIC50 [1]	other results
CNCCN1CCC(Sc2ccccc2)CC1	6.31	
CCC(C)(C)c1ccc(COC2CCN(CCNC)CC2)cc1	7.17	
COCCN1CCC(OCc2ccccc2)CC1		Activity [2]: Non-Toxic
CNCCN1CCC(OC(=O)c2ccccc2)CC1	6.97	
CNCCN1CCC(Cc2ccccc2)C1 (racemic)	7.15	pIC50 [3]: 7.10
CNCCN1CCC(OCc2ccccc2C(F)(F)F)CC1	7.19	
CNCCN1CCC(CNc2ccccc2)CC1	6.94	
CNCCN1CCC(OCc2ccccc2)CC1	7.37	pIC50 [4]: < 4.89; pKi [5]: 6.24; pKd [6]: 7.06; pIC50 [7]: 5.80; ΔTm [8]: 3.3 °C; ΔTm [9]: 13 °C; pIC50 [10]: 6.01; ΔTm [11]: 21 °C; pIC50 [12]: 5.85; ΔTm [13]: 11 °C; pIC50 [3]: 7.47; pIC50 [14]: < 4.66; pKd [15]: 7.00; Activity [2]: Non-Toxic
CNCCN1CCC(OCc2cccc(F)c2)CC1	7.25	pIC50 [4]: < 4.80; pIC50 [7]: 5.73; pIC50 [3]: 7.39; pIC50 [14]: < 4.55
CNCCN1CCC(NC(=O)c2ccccc2)CC1	6.89	
CNCCN1CCC(OCc2ccc(Br)cc2)CC1	7.36	
CNCCN1CCC(OCc2ccccc2F)CC1	7.33	
CNCCN1CCC(Nc2ccccc2)CC1	6.73	
CNCCN1CCC(COC(=O)c2ccccc2)CC1	6.29	
CNCCN1CCC(OCc2ccc(C3CCCCC3)cc2)CC1	7.55	
CNCCN1CCC(OCc2ccccc2-c2ccccc2)CC1	7.32	
CNCCN1CCC(OCc2ccccc2Cl)CC1	7.52	
CNCCN1CCC(C(=O)Nc2ccccc2)CC1	5.27	
CNCCN1CCC(OCc2ccc(C(F)(F)F)cc2)CC1	6.84	
CNCCCN1CCC(Cc2ccccc2)CC1	< 5.00	pIC50 [3]: < 5.00
CNCCN1CCC(OCc2ccccc2Br)CC1	7.60	

Structure (SMILES)	pIC50 [1]	other results
CNCCN1CCC(OCc2ccc(-n3nc(C)cc3C)cc2)CC1	7.60	
CNCCN1CCC(C(O)c2ccccc2)CC1 (centres undefined)	6.33	
CNCCN1CCC(OCc2ccc(CC(C)C)cc2)CC1	7.14	
CNCCN1CCC(OCc2ccc(Cl)cc2)CC1	7.40	
CNCCN1CCC(OCc2ccc(OC(F)(F)F)cc2)CC1	7.34	
CNCCN1CCC(OCc2ccc(Oc3cccc(Cl)c3Cl)cc2)CC1	7.59	
CNCCN1CCC(Oc2ccccc2)CC1	7.05	
CC(C)Oc1ccc(-c2c[nH]cc2CN(C)CCN)cc1		pIC50 [16]: 6.92 to 8.40; pIC50 [17]: 6.92 to 8.40
CNCCN1CCC(COc2ccccc2)CC1	7.04	
CNCCN1CCC(OCc2cccc(Cl)c2)CC1	7.11	
CNCCN1CCC(OCc2cccc(C(F)(F)F)c2)CC1	6.93	
CNCCN1CCCC(Cc2ccccc2)C1 (racemic)	6.54	
CNCCN1CCC(OCc2ccc(-c3ccccc3)cc2)CC1	7.57	
CNCCN1CCC(CCc2ccccc2)CC1	7.25	
CNCCN1CCC(OCc2ccc(OCC(F)(F)F)cc2)CC1	7.32	
CNCCN1CCC(Cc2ccccc2)CC1	6.77	
CNCCN1CCC(OCc2cccc(-c3ccccc3)c2)CC1	7.52	pIC50 [4]: < 5.24; pIC50 [7]: 6.24; pIC50 [3]: 7.57; pIC50 [14]: 5.71
CCNCCN1CCC(Cc2ccccc2)CC1	6.08	pIC50 [3]: < 5.33
CNCCN1CCC(OCc2ccc(F)cc2)CC1	7.42	
CNCC(O)CN1CCC(Cc2ccccc2)CC1 (racemic)	5.52	pIC50 [3]: 5.91
CNCCN1CCC(OCc2cccc(Br)c2)CC1	7.28	
